US20230078718A1, “UNSATURATED FATTY ACID-CONJUGATED CP2C-TARGETING PEPTIDE-BASED ANTICANCER AGENT” (Industry-University Cooperation Foundation Hanyang …, priority 2020, published 2023)
Bridge positions count the residues as written; N and C are the ends. Peptide text beside a SMILES is read from it. * marks the point of attachment. X1 = CC/C=C\C/C=C\C/C=C\C/C=C\C/C=C\C/C=C\CCC(=O)*

Columns and labels:
[1] = test system: breast cancer (MDA-MB-231) and liver cancer (HepG2) cell lines
human erythrocytes = assay: Hemolysis of erythrocytes; assay type: cell-based; settings: pH 7.4, 8 hours
Source text: (§1) The following methods were used to confirm the stability and safety of the cancer cell-specific cell death-inducing ACP52C. […] It is presumed that ACP52C is subjected to renal secretion rather than degradation by proteases, since ACP52C (a peptide consisted of 15 amino acids) is short enough to be easily secreted from the kidneys.

[2] = test system: MCF10A, a non-tumorigenetic breast epithelial cell line; settings: FACS
[3] = test system: MDA-MB-231 and HepG2 cell lines
[4] = Half-life in blood (in vivo) by HPLC; settings: read-out: time to degradation to half in blood (in vivo) (converted)
Source text: as §1

MCF10A cells = settings: electron microscopy
[5] = test system: various cancer cell lines; assay: Cell growth inhibition in various cancer cell lines (MTT assay, GI50); assay type: cell-based
MDA-MB-231 cells = settings: western blotting of apoptosis-related proteins, electron microscopy, Annexin V/PI
MDA-MB-231 cell line = settings: MDA-MB-231, FACS
Hep3B xenograft = assay: Tumor growth inhibition in Hep3B xenograft mouse model; assay type: in vivo
Description: In order to confirm the anticancer efficacy of ACP52CG and ACP52CK in vivo, following groups of treatment were performed […]; a negative control (saline; mock), a positive control (sorafenib, 10 mg/kg and ACP52C, 2 mg/kg), and an experimental group (ACP52CK, 5 mg/kg and ACP52CG, 5 mg/kg).

[6] = Stability in serum (in vitro) by HPLC; assay type: in vitro ADME
Source text: as §1

MCF7 cells = settings: ACP52C-treated MCF7 cells
[7] = Live imaging of Cy5-labeled peptide after tail vein injection in Hep3B xenograft mouse; settings: in vivo
Source text: as §1

[8] = test system: normal human mesenchymal stem cells (hMSCs)
Description: (§2) As an example thereof, FIG. 10 illustrates cell numbers at 48 hours and 96 hours after treatment of each drug at different concentrations in a breast cancer cell line (MDA-MB-231), normal human mesenchymal stem cells (hMSCs, LT18), and a non-tumorigenic lung cell line (BEAS-2B), cell growth inhibition graphs to get GI50 values, and representative photographs of cells.
(§3) First, to test the effect of DHA itself, a breast cancer cell line (MDA-MB-231), liver cancer cell lines (Hep3B and HepG2), a normal hMSC cell line ([…]), and a non-tumorigenic lung cell line (BEAS-2B) were treated with DHA over concentrations, and then cell growth was analyzed by MTT assay.

[9] = test system: non-tumorigenic lung cell line (BEAS-2B)
Description: as §2, §3

[10] = test system: breast cancer cell line (MDA-MB-231), liver cancer cell lines (Hep3B and HepG2); assay: Cell growth by MTT assay after DHA treatment of cancer cell lines; assay type: cell-based
Description: First, to test the effect of DHA itself, a breast cancer cell line (MDA-MB-231), liver cancer cell lines (Hep3B and HepG2), a normal hMSC cell line (LA211), and a non-tumorigenic lung cell line (BEAS-2B) were treated with DHA over concentrations, and then cell growth was analyzed by MTT assay.

[11] = test system: CP2c transcription factor complexes [CP2c homotetramer and the CBP (CP2c, CP2b, and PIAS1) heterohexamer]; assay: Interference with CP2c transcription factor complex formation and DNA binding; assay type: biochemical
Source text: Since PEP #5-2 cannot enter cells by itself, in order to improve cell permeability of Pep #5-2, a cell-penetrating peptide (CPP), an internalizing RGD (iRGD) which is a peptide consisting of 9 amino acids (9aa) ‘Cys-Arg-Gly-Asp-Lys-Gly-Pro-Asp-Cys (CRGDKGPDC, SEQ ID NO: 3)’, was bound to the CP2c-targeting peptide and named it as ACP52C (FIG. 7).

[12] = tail vein, 6 times at 3-day intervals, sorafenib 10 mg/kg, DHA-ACP52 1.65 mg/kg, DHA-ACP52C 2.79 mg/kg

In the case of `N=C(N)NCCC[C@@H]1NC(=O)[C@@H](NC(=O)[C@@H]2CCCN2C(=O)[C@H](CCCNC(=N)N)NC(=O)[C@H](CCC(N)=O)NC(=O)[C@@H]2CCCN2C(=O)[C@H](Cc2ccc(O)cc2)NC(=O)[C@@H](N)CC(N)=O)CSSC[C@@H](C(N)=O)NC(=O)[C@H](CC(=O)O)NC(=O)[C@@H]2CCCN2C(=O)CNC(=O)[C@H](CCCCN)NC(=O)[C@H](CC(=O)O)NC(=O)CNC1=O` [ACP52C] (H-NYPQRPCRGDKGPDC-NH2; disulfide 7-15; N-terminus assumed), the GI50 [1] is reported as 2 µM, the hemolysis (human erythrocytes) is reported as “Hemolysis was not appeared” and the cell cycle progression [2] is reported as “exerted no effect on cell cycle progression”. For the same compound, the “colony formation ability when CP2c is overexpressed” value ([3]; CP2c overexpression) was “the colony formation ability is suppressed more efficiently”, the colony formation ability ([3]; MDA-MB-231 and HepG2) was “efficiently suppressed the colony formation ability” and the half-life [4] was 2 h. For the same compound, the “characteristics of apoptosis (condensation of cell nuclei)” value (MCF10A cells) was “not at all in MCF10A cells”, the “effective concentration for cancer cell-specific cell death” value [5] was no more than 10 µM and the “cancer cell-specific growth suppression and cell death” value ([5]; various cancer cell lines) was “cancer cell-specific growth suppression and cell death efficacies”. The “cell death induction via apoptosis” value (MDA-MB-231 cells) was “induced cell death via apoptosis”, the cell cycle changes (MDA-MB-231 cell line) was “induced cell cycle arrest, increasing cells at G2/M and subG1 phases” and the “anticancer effect (summary)” value (Hep3B xenograft; injected by 3-day intervals) was “exhibited a significant anticancer effect when injected by 3-day intervals”. For the same compound, the “anticancer effect (summary)” value (Hep3B xenograft; injected by 5-day intervals) was “did not exhibit a significant anticancer effect when injected by 5-day intervals”, the “time stable in serum (in vitro)” value [6] was “up to 24 hours” and the “expression of Cdc2 (CDK1) and Cyclin B1” value (MCF7 cells) was “expression of Cdc2 (CDK1) and Cyclin B1 was decreased”. It also gave a half-life [7] of roughly 7.95 h.
In the case of `CC/C=C\C/C=C\C/C=C\C/C=C\C/C=C\C/C=C\CCC(=O)O` [DHA, all-cis-docosa-4,7,10,13,16,19-hexa-enoic acid, reference compound], the cytotoxicity [8] is reported as “showed no cytotoxicity on the normal cell line”, the concentration showing cytotoxicity ([9]; human) is reported as no less than 20 µM and the “anticancer effect at a concentration of 10 μM or less” value ([10]; Hep3B and MDA-MB-231 cell lines) is reported as “no anticancer effect was exhibited”. For the same compound, the concentration showing cytotoxicity ([10]; cancer cells, MTT) was no less than 20 µM.
In the case of `CC/C=C\C/C=C\C/C=C\C/C=C\C/C=C\C/C=C\CCC(=O)NCC(=O)NCC(=O)N[C@@H](CC(N)=O)C(=O)N[C@@H](Cc1ccc(O)cc1)C(=O)N1CCC[C@H]1C(=O)N[C@@H](CCC(N)=O)C(=O)N[C@@H](CCCNC(=N)N)C(=O)N1CCC[C@H]1C(N)=O` [DHA-ACP52] (X1-GGNYPQRP-NH2), the GI50 [1] is reported as 5.7 to 6.95 µM, the toxicity [8] is reported as “none of DHA-ACP52 and DHA-ACP52C showed toxicity” and the toxicity [9] is reported as “none of DHA-ACP52 and DHA-ACP52C showed toxicity”. For the same compound, the “tumor size, shape, and weight in sacrificed mice” value (Hep3B xenograft; [12]) was “did not exhibit any effect”.
In the case of `CNC(=O)c1cc(Oc2ccc(NC(=O)Nc3ccc(Cl)c(C(F)(F)F)c3)cc2)ccn1` [sorafenib, reference compound], the “tumor size measured once every 3 days during the experiment” value (Hep3B xenograft; [12]) is reported as “inhibited cancer growth more effectively than the group treated with mock or DHA-ACP52” and the “tumor size, shape, and weight in sacrificed mice” value (Hep3B xenograft; [12]) is reported as “significant anticancer efficacy compared to the mock”.
In the case of “NYPQRP(Asn-Try-Pro-Gln-Arg-Pro, SEQ ID NO: 2) (peptide for targeting CP2c) [PEP #5-2, CP2c-targeting peptide of 6 amino acids at the carboxyl terminus of PEP #5]”, the “interference with DNA binding of the CP2c transcription factor complexes by suppressing complex formation” value [11] is reported as “showed the same effect as PEP #5”.
In the case of “PEP #5: peptide binding transcription factor CP2c, identified by the phage display method (YPQR; peptide for targeting CP2c)”, the “interference with DNA binding of the CP2c transcription factor complexes by suppressing complex formation” value [11] is reported as “interferes with DNA binding of the CP2c transcription factor complexes”.
